According to the CheMixHub viscosity set:

Assay: xn = mol fraction of the nth substance listed

OC[C@@H](O)[C@@H](O)[C@H](O)[C@@H](O)CO + O
Details | viscosity [mPa·s]
293.15 K, 101 kPa, x1 = 0.0142 | 1.458
303.15 K, 101 kPa, x1 = 0.002 | 0.8134
303.15 K, 101 kPa, x1 = 0.003592 | 0.8731
303.15 K, 101 kPa, x1 = 0.004 | 0.8647
303.15 K, 101 kPa, x1 = 0.006 | 0.916
303.15 K, 101 kPa, x1 = 0.007154 | 0.948
303.15 K, 101 kPa, x1 = 0.0078 | 0.9637
303.15 K, 101 kPa, x1 = 0.008 | 0.9675
303.15 K, 101 kPa, x1 = 0.0089 | 0.9962
303.15 K, 101 kPa, x1 = 0.01 | 1.019
303.15 K, 101 kPa, x1 = 0.012 | 1.071
303.15 K, 101 kPa, x1 = 0.0122 | 1.072
303.15 K, 101 kPa, x1 = 0.0135 | 1.104
303.15 K, 101 kPa, x1 = 0.016 | 1.175
303.15 K, 101 kPa, x1 = 0.0194 | 1.277
303.15 K, 101 kPa, x1 = 0.02 | 1.279
303.15 K, 101 kPa, x1 = 0.0228 | 1.345
303.15 K, 101 kPa, x1 = 0.024 | 1.383
303.15 K, 101 kPa, x1 = 0.026 | 1.436
303.15 K, 101 kPa, x1 = 0.028 | 1.489
305.15 K, 100 kPa, x1 = 4e-05 | 0.8093
305.15 K, 100 kPa, x1 = 7e-05 | 0.8135
308.15 K, 101 kPa, x1 = 0.004 | 0.7869
308.15 K, 101 kPa, x1 = 0.006 | 0.8221
308.15 K, 101 kPa, x1 = 0.008 | 0.8763
308.15 K, 101 kPa, x1 = 0.01 | 0.9231
308.15 K, 101 kPa, x1 = 0.012 | 0.9658
308.15 K, 101 kPa, x1 = 0.014 | 1.008
308.15 K, 101 kPa, x1 = 0.016 | 1.054
308.15 K, 101 kPa, x1 = 0.018 | 1.105
308.15 K, 101 kPa, x1 = 0.02 | 1.147
308.15 K, 101 kPa, x1 = 0.022 | 1.203
308.15 K, 101 kPa, x1 = 0.024 | 1.245
308.15 K, 101 kPa, x1 = 0.026 | 1.291
308.15 K, 101 kPa, x1 = 0.028 | 1.355
310.15 K, 100 kPa, x1 = 4e-05 | 0.7489
310.15 K, 100 kPa, x1 = 7e-05 | 0.7596
313.15 K, 101 kPa, x1 = 0.002 | 0.6825
313.15 K, 101 kPa, x1 = 0.004 | 0.7202
313.15 K, 101 kPa, x1 = 0.006 | 0.7581
313.15 K, 101 kPa, x1 = 0.007154 | 0.7675
313.15 K, 101 kPa, x1 = 0.0078 | 0.7956
313.15 K, 101 kPa, x1 = 0.008 | 0.7961
313.15 K, 101 kPa, x1 = 0.0089 | 0.815
313.15 K, 101 kPa, x1 = 0.01 | 0.8344
313.15 K, 101 kPa, x1 = 0.0107 | 0.834
313.15 K, 101 kPa, x1 = 0.012 | 0.8728
313.15 K, 101 kPa, x1 = 0.0122 | 0.8704
313.15 K, 101 kPa, x1 = 0.014 | 0.9114
313.15 K, 101 kPa, x1 = 0.016 | 0.9502
313.15 K, 101 kPa, x1 = 0.0169 | 0.9712
313.15 K, 101 kPa, x1 = 0.0177 | 0.9777
313.15 K, 101 kPa, x1 = 0.018 | 0.9891
313.15 K, 101 kPa, x1 = 0.022 | 1.068
313.15 K, 101 kPa, x1 = 0.0228 | 1.077
313.15 K, 101 kPa, x1 = 0.024 | 1.107
313.15 K, 101 kPa, x1 = 0.026 | 1.147
313.15 K, 101 kPa, x1 = 0.028 | 1.187
315.15 K, 100 kPa, x1 = 4e-05 | 0.7083
315.15 K, 100 kPa, x1 = 7e-05 | 0.7362
318.15 K, 101 kPa, x1 = 0.004 | 0.6625
318.15 K, 101 kPa, x1 = 0.006 | 0.6978
318.15 K, 101 kPa, x1 = 0.008 | 0.7286
318.15 K, 101 kPa, x1 = 0.01 | 0.7647
318.15 K, 101 kPa, x1 = 0.012 | 0.796
318.15 K, 101 kPa, x1 = 0.014 | 0.8293
318.15 K, 101 kPa, x1 = 0.016 | 0.8716
318.15 K, 101 kPa, x1 = 0.018 | 0.9013
318.15 K, 101 kPa, x1 = 0.02 | 0.9433
318.15 K, 101 kPa, x1 = 0.022 | 0.9822
318.15 K, 101 kPa, x1 = 0.024 | 1.015
318.15 K, 101 kPa, x1 = 0.026 | 1.06
318.15 K, 101 kPa, x1 = 0.028 | 1.089
323.15 K, 101 kPa, x1 = 0.002 | 0.5854
323.15 K, 101 kPa, x1 = 0.003592 | 0.5894
323.15 K, 101 kPa, x1 = 0.004 | 0.6131
323.15 K, 101 kPa, x1 = 0.006 | 0.6414
323.15 K, 101 kPa, x1 = 0.0078 | 0.6663
323.15 K, 101 kPa, x1 = 0.008 | 0.6702
323.15 K, 101 kPa, x1 = 0.0089 | 0.685
323.15 K, 101 kPa, x1 = 0.01 | 0.6996
323.15 K, 101 kPa, x1 = 0.0103 | 0.7078
323.15 K, 101 kPa, x1 = 0.0107 | 0.6878
323.15 K, 101 kPa, x1 = 0.0112 | 0.716
323.15 K, 101 kPa, x1 = 0.012 | 0.7295
323.15 K, 101 kPa, x1 = 0.0122 | 0.7288
323.15 K, 101 kPa, x1 = 0.014 | 0.76
323.15 K, 101 kPa, x1 = 0.0142 | 0.7324
323.15 K, 101 kPa, x1 = 0.015 | 0.7741
323.15 K, 101 kPa, x1 = 0.016 | 0.791
323.15 K, 101 kPa, x1 = 0.0169 | 0.8041
323.15 K, 101 kPa, x1 = 0.0177 | 0.7979
323.15 K, 101 kPa, x1 = 0.018 | 0.8226
323.15 K, 101 kPa, x1 = 0.0194 | 0.8507
323.15 K, 101 kPa, x1 = 0.02 | 0.8547
323.15 K, 101 kPa, x1 = 0.022 | 0.8874
323.15 K, 101 kPa, x1 = 0.0228 | 0.8982
323.15 K, 101 kPa, x1 = 0.024 | 0.9206
323.15 K, 101 kPa, x1 = 0.026 | 0.9544
323.15 K, 101 kPa, x1 = 0.028 | 0.9887

CCNCCO + O
viscosity [mPa·s]
Details | 293.15 K | 298.15 K | 303.15 K | 308.15 K | 313.15 K | 318.15 K | 323.15 K
100 kPa, x2 = 0.55 | 32.2 | – | 18.1 | – | 10.9 | – | 6.98
101 kPa, x1 = 0.0499 | – | – | 1.968 | – | – | – | –
101 kPa, x1 = 0.0998 | – | – | 3.824 | – | – | – | –
101 kPa, x1 = 0.1506 | – | – | 6.179 | – | – | – | –
101 kPa, x1 = 0.2011 | – | – | 8.652 | – | – | – | –
101 kPa, x1 = 0.2982 | – | – | 13.25 | – | – | – | –
101 kPa, x1 = 0.4029 | – | – | 17.07 | – | – | – | –
101 kPa, x1 = 0.4458 | – | – | 17.98 | – | – | – | –
101 kPa, x1 = 0.5051 | – | – | 18.79 | – | – | – | –
101.3 kPa, x1 = 0.0481 | 2.723 | – | 1.934 | – | 1.422 | – | 1.093
101.3 kPa, x1 = 0.0797 | 4.52 | 3.7 | 3.05 | 2.56 | 2.18 | 1.86 | 1.62
101.3 kPa, x1 = 0.1001 | 7.45 | – | 4.82 | – | 2.74 | – | 2
101.3 kPa, x1 = 0.119 | 7.315 | – | 4.617 | – | 3.122 | – | 2.225
101.3 kPa, x1 = 0.168 | 11.94 | 9.26 | 7.3 | 5.85 | 4.78 | 3.96 | 3.34
101.3 kPa, x1 = 0.2 | – | – | 9.31 | – | 5.5 | – | 3.68
101.3 kPa, x1 = 0.233 | 17.55 | – | 10.33 | – | 6.544 | – | 4.39
101.3 kPa, x1 = 0.3001 | 23.16 | – | 13.36 | – | 8.19 | – | 5.2
101.3 kPa, x1 = 0.4002 | 28.88 | – | 16.31 | – | 10.32 | – | 6.29
101.3 kPa, x1 = 0.447 | 31.75 | – | 17.94 | – | 10.85 | – | 6.977
101.3 kPa, x1 = 0.5 | – | – | 17.86 | – | 11.49 | – | 6.88
101.3 kPa, x1 = 0.6001 | 31.42 | – | 17.96 | – | 11.66 | – | 7.05
101.3 kPa, x1 = 0.7 | 28.21 | – | 16.61 | – | 10.91 | – | 6.74
101.3 kPa, x1 = 0.8002 | 23.04 | – | 14.28 | – | 9.46 | – | 6.18
101.3 kPa, x1 = 0.9001 | 17.51 | – | 11.45 | – | 7.8 | – | 5.19
101.3 kPa, x2 = 0.3547 | 30.01 | – | – | – | 10.6 | – | 6.882
101.33 kPa, x1 = 0.019 | 1.537 | 1.336 | 1.172 | 1.038 | 0.927 | 0.833 | 0.755
101.33 kPa, x1 = 0.0419 | 2.508 | 2.112 | 1.804 | 1.559 | 1.362 | 1.201 | 1.068
101.33 kPa, x1 = 0.0686 | 3.671 | 3.152 | 2.613 | 2.222 | 1.896 | 1.643 | 1.438
101.33 kPa, x1 = 0.1 | 5.847 | 4.671 | 3.798 | 3.14 | – | 2.241 | 1.934
